Results from the NIST ThermoML archive (doi:10.1016/j.tca.2016.06.022).

Experiment: xn = mol fraction of the nth substance listed
Settings: 101 kPa, Liquid, Vibrating tube method

NCCN [ethane-1,2-diamine] + O
Settings | mass density [kg/m3]
274.15 K, x1 = 0.002 | 999.81
274.15 K, x1 = 0.0033 | 999.71
274.15 K, x1 = 0.0047 | 999.62
274.15 K, x1 = 0.0072 | 999.47
274.15 K, x1 = 0.009 | 999.38
274.15 K, x1 = 0.0123 | 999.18
274.15 K, x1 = 0.0222 | 998.88
274.15 K, x1 = 0.0436 | 999.22
274.15 K, x1 = 0.0609 | 1000.11
274.15 K, x1 = 0.0827 | 1002.02
275.15 K, x1 = 0.002 | 999.85
275.15 K, x1 = 0.0033 | 999.74
275.15 K, x1 = 0.0047 | 999.65
275.15 K, x1 = 0.0072 | 999.48
275.15 K, x1 = 0.009 | 999.37
275.15 K, x1 = 0.0123 | 999.18
275.15 K, x1 = 0.0222 | 998.82
275.15 K, x1 = 0.0436 | 999.08
275.15 K, x1 = 0.0609 | 999.93
275.15 K, x1 = 0.0827 | 1001.75
276.15 K, x1 = 0.002 | 999.87
276.15 K, x1 = 0.0033 | 999.75
276.15 K, x1 = 0.0047 | 999.66
276.15 K, x1 = 0.0072 | 999.48
276.15 K, x1 = 0.009 | 999.37
276.15 K, x1 = 0.0123 | 999.16
276.15 K, x1 = 0.0222 | 998.79
276.15 K, x1 = 0.0436 | 998.93
276.15 K, x1 = 0.0609 | 999.69
276.15 K, x1 = 0.0827 | 1001.43
277.15 K, x1 = 0.002 | 999.87
277.15 K, x1 = 0.0033 | 999.75
277.15 K, x1 = 0.0047 | 999.65
277.15 K, x1 = 0.0072 | 999.47
277.15 K, x1 = 0.009 | 999.35
277.15 K, x1 = 0.0123 | 999.12
277.15 K, x1 = 0.0222 | 998.71
277.15 K, x1 = 0.0436 | 998.76
277.15 K, x1 = 0.0609 | 999.54
277.15 K, x1 = 0.0827 | 1001.13
278.15 K, x1 = 0.002 | 999.85
278.15 K, x1 = 0.0033 | 999.73
278.15 K, x1 = 0.0047 | 999.62
278.15 K, x1 = 0.0072 | 999.43
278.15 K, x1 = 0.009 | 999.3
278.15 K, x1 = 0.0123 | 999.07
278.15 K, x1 = 0.0222 | 998.62
278.15 K, x1 = 0.0436 | 998.59
278.15 K, x1 = 0.0609 | 999.31
278.15 K, x1 = 0.0827 | 1000.79
278.15 K, x1 = 0.106 | 1002.72
278.15 K, x1 = 0.1481 | 1006.44
278.15 K, x1 = 0.2063 | 1009.32
278.15 K, x1 = 0.2513 | 1008.93
278.15 K, x1 = 0.3148 | 1002.73
278.15 K, x1 = 0.3258 | 1002.11
278.15 K, x1 = 0.3316 | 1001.85
278.15 K, x1 = 0.341 | 1001.4
278.15 K, x1 = 0.4038 | 992.34
278.15 K, x1 = 0.4489 | 985.23
278.15 K, x1 = 0.4928 | 977.8
278.15 K, x1 = 0.5468 | 968.88
278.15 K, x1 = 0.5907 | 961.76
278.15 K, x1 = 0.6361 | 954.59
278.15 K, x1 = 0.6843 | 947.87
278.15 K, x1 = 0.7386 | 940.37
278.15 K, x1 = 0.7954 | 933.17
278.15 K, x1 = 0.81 | 931.24
278.15 K, x1 = 0.8505 | 926.49
278.15 K, x1 = 0.898 | 921.18
278.15 K, x1 = 0.9282 | 917.97
278.15 K, x1 = 0.9584 | 914.9
278.15 K, x1 = 0.9678 | 913.98
279.15 K, x1 = 0.002 | 999.82
279.15 K, x1 = 0.0033 | 999.7
279.15 K, x1 = 0.0047 | 999.59
279.15 K, x1 = 0.0072 | 999.38
279.15 K, x1 = 0.009 | 999.26
279.15 K, x1 = 0.0123 | 999.01
279.15 K, x1 = 0.0222 | 998.54
279.15 K, x1 = 0.0436 | 998.41
279.15 K, x1 = 0.0609 | 999.05
279.15 K, x1 = 0.0827 | 1000.47
280.15 K, x1 = 0.002 | 999.78
280.15 K, x1 = 0.0033 | 999.65
280.15 K, x1 = 0.0047 | 999.54
280.15 K, x1 = 0.0072 | 999.33
280.15 K, x1 = 0.009 | 999.2
280.15 K, x1 = 0.0123 | 998.93
280.15 K, x1 = 0.0222 | 998.41
280.15 K, x1 = 0.0436 | 998.21
280.15 K, x1 = 0.0609 | 998.8
280.15 K, x1 = 0.0827 | 1000.14
281.15 K, x1 = 0.002 | 999.72
281.15 K, x1 = 0.0033 | 999.59
281.15 K, x1 = 0.0047 | 999.47
281.15 K, x1 = 0.0072 | 999.25
281.15 K, x1 = 0.009 | 999.12
281.15 K, x1 = 0.0123 | 998.84
281.15 K, x1 = 0.0222 | 998.29
281.15 K, x1 = 0.0436 | 998.03
281.15 K, x1 = 0.0609 | 998.53
281.15 K, x1 = 0.0827 | 999.78
282.15 K, x1 = 0.002 | 999.65
282.15 K, x1 = 0.0033 | 999.52
282.15 K, x1 = 0.0047 | 999.39
282.15 K, x1 = 0.0072 | 999.17
282.15 K, x1 = 0.009 | 999.04
282.15 K, x1 = 0.0123 | 998.74
282.15 K, x1 = 0.0222 | 998.17
282.15 K, x1 = 0.0436 | 997.81
282.15 K, x1 = 0.0609 | 998.25
282.15 K, x1 = 0.0827 | 999.43
283.15 K, x1 = 0.002 | 999.56
283.15 K, x1 = 0.0033 | 999.43
283.15 K, x1 = 0.0047 | 999.3
283.15 K, x1 = 0.0072 | 999.07
283.15 K, x1 = 0.009 | 998.92
283.15 K, x1 = 0.0123 | 998.62
283.15 K, x1 = 0.0222 | 998.01
283.15 K, x1 = 0.0436 | 997.6
283.15 K, x1 = 0.0609 | 997.98
283.15 K, x1 = 0.0827 | 999.09
288.15 K, x1 = 0.002 | 998.94
288.15 K, x1 = 0.0033 | 998.79
288.15 K, x1 = 0.0047 | 998.64
288.15 K, x1 = 0.0072 | 998.38
288.15 K, x1 = 0.009 | 998.21
288.15 K, x1 = 0.0123 | 997.87
288.15 K, x1 = 0.0222 | 997.12
288.15 K, x1 = 0.0436 | 996.36
288.15 K, x1 = 0.0609 | 996.47
288.15 K, x1 = 0.0827 | 997.2
288.15 K, x1 = 0.106 | 998.37
288.15 K, x1 = 0.1481 | 1000.83
288.15 K, x1 = 0.2063 | 1002.48
288.15 K, x1 = 0.2513 | 1001.08
288.15 K, x1 = 0.3148 | 995
288.15 K, x1 = 0.3316 | 993.72
288.15 K, x1 = 0.341 | 992.78
288.15 K, x1 = 0.4038 | 983.69
288.15 K, x1 = 0.4489 | 976.15
288.15 K, x1 = 0.4928 | 968.71
288.15 K, x1 = 0.5468 | 959.92
288.15 K, x1 = 0.5907 | 952.42
